The values below come from patent publication US20140243302A1, “BRIDGED BICYCLIC COMPOUNDS FOR THE TREATMENT OF BACTERIAL INFECTIONS” (priority 2011, published 2014).

SMILES strings stand for the structures. Converted amounts (≈) assume the structure as drawn.

For this test, the system named is Staphylococcus aureus Smith. Kind of test: MIC assay, modified agar dilution (CLSI), S. aureus Smith. The class given is cell-based. The settings on record: Staphylococcus aureus, agar dilution, 35° C., 16-20 hr; lowest concentration that completely inhibited growth; read-out: S_aureus_Smith_WT_MIC. The method, boiled down:
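Agar dilution per CLSI on Mueller Hinton agar (plus 5% horse blood for S. pneumoniae and E. faecium), compound 128 to 0.001 μg/mL in two-fold steps. Spots of ~1×10^4 CFU incubated at 35 °C for 16-20 hr before MIC scoring.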
Background: Agar dilution tests growth on a series of plates holding different concentrations.
As to `COc1nc2c(CCC34CCC(NCc5ccc6c(n5)NC(=O)CO6)(CC3)CO4)c(F)cnc2cc1F` [Example 174, 6-[({1-[2-(3,7-Difluoro-6-methoxy-1,5-naphthyridin-4-yl)ethyl]-2-oxabicyclo[2.2.2]oct-4-yl}amino)methyl]-2H-pyrido[3,2-b][1,4]oxazin-3(4H)-one], the MIC amounted to 0.031 µg/mL (≈ 0.0606 µM). Consider `CC(C)(O)CCOc1ccc2ncc(F)c(CCC34CCC(NCc5ccc6c(n5)NC(=O)CO6)(CC3)CO4)c2n1` [Example 175, 6-{[(1-{2-[3-Fluoro-6-(3-hydroxy-3-methylbutoxy)-1,5-naphthyridin-4-yl]ethyl}-2-oxabicyclo[2.2.2]oct-4-yl)amino]methyl}-2H-pyrido[3,2-b][1,4]oxazin-3(4H)-one], for which the MIC was found to be 1 µg/mL (≈ 1.77 µM). Consider `COc1ccc2ncc(F)c(CCC34CCC(N(C)Cc5ccc6c(n5)NC(=O)CO6)(CC3)CO4)c2n1` [Example 176, 6-{[{1-[2-(3-Fluoro-6-methoxy-1,5-naphthyridin-4-yl)ethyl]-2-oxabicyclo[2.2.2]oct-4-yl}(methyl)amino]methyl}-2H-pyrido[3,2-b][1,4]oxazin-3(4H)-one], for which the MIC was determined as 0.125 µg/mL (≈ 0.246 µM). Regarding `COc1ccc2ncc(F)c(CCC34CCC(NCc5cc6c(nn5)OCC(=O)N6)(CC3)CO4)c2n1` [Example 177, 3-[({1-[2-(3-Fluoro-6-methoxy-1,5-naphthyridin-4-yl)ethyl]-2-oxabicyclo[2.2.2]oct-4-yl}amino)methyl]-5H-pyridazino [3,4-b][1,4]oxazin-6(7H)-one], the MIC came to 1 µg/mL (≈ 2.02 µM).

With `COc1ccc2ncc(F)c(CCC34CCC(NCc5ccc6ncc(=O)[nH]c6n5)(CC3)CO4)c2n1` [Example 178, 6-[({1-[2-(3-Fluoro-6-methoxy-1,5-naphthyridin-4-yl)ethyl]-2-oxabicyclo[2.2.2]oct-4-yl}amino)methyl]pyrido[2,3-b]pyrazin-3(4H)-one], the MIC stood at 0.063 µg/mL (≈ 0.128 µM). `COc1ccc2ncc(F)c(CCC34CCC(NCc5cc6[nH]c(=O)cnc6cn5)(CC3)CO4)c2n1` [Example 179, 7-[({1-[2-(3-Fluoro-6-methoxy-1,5-naphthyridin-4-yl)ethyl]-2-oxabicyclo[2.2.2]oct-4-yl}amino)methyl]pyrido[3,4-b]pyrazin-2(1H)-one]: the MIC amounted to 0.5 µg/mL (≈ 1.02 µM). Turning to `N#Cc1ccc2ccc(=O)n(CCC34CCC(NCc5ccc6c(n5)NC(=O)CO6)(CC3)CO4)c2c1` [Example 180, 2-Oxo-1-[2-(4-{[(3-oxo-3,4-dihydro-2H-pyrido[3,2-b][1,4]oxazin-6-yl)methyl]amino}-2-oxabicyclo[2.2.2]oct-1-yl)ethyl]-1,2-dihydroquinoline-7-carbonitrile], the MIC was found to be 0.031 µg/mL (≈ 0.0638 µM).

In the case of `CC(O)CCOc1ccc2ncc(F)c(CCC34CCC(NCc5ccc6c(n5)NC(=O)CO6)(CC3)CO4)c2n1` (stereo not shown) [Example 181, 6-{[(1-{2-[3-Fluoro-6-(3-hydroxybutoxy)-1,5-naphthyridin-4-yl]ethyl}-2-oxabicyclo[2.2.2]oct-4-yl)amino]methyl}-2H-pyrido[3,2-b][1,4]oxazin-3(4H)-one], the MIC is 0.125 µg/mL (≈ 0.227 µM). The same measure for `COc1ccc2ncc(F)c(CC(O)C34CCC(NCc5cc6[nH]c(=O)cnc6cn5)(CC3)CO4)c2n1` (stereo not shown) [Example 182, 7-[({1-[2-(3-Fluoro-6-methoxy-1,5-naphthyridin-4-yl)-1-hydroxyethyl]-2-oxabicyclo[2.2.2]oct-4-yl}amino)methyl]pyrido[3,4-b]pyrazin-2(1H)-one]: 4 µg/mL (≈ 7.9 µM); for `COc1ccc2ncc(F)c(CCC34CCC(NCc5cc6cccnc6n(C)c5=O)(CC3)CO4)c2n1.Cl` [Example 183, 3-((1-(2-(3-Fluoro-6-methoxy-1,5-naphthyridin-4-yl)ethyl)-2-oxabicyclo[2.2.2]octan-4-ylamino)methyl)-1-methyl-1,8-naphthyridin-2(1H)-one Hydrochloride]: 1 µg/mL; for `N[C@@H]1CO[C@@H]1COc1ccc2ncc(F)c(CCC34CCC(NCc5ccc6c(n5)NC(=O)CO6)(CC3)CO4)c2n1` [Example 184, 6-((1-(2-(6-(((2S,3R)-3-Aminooxetan-2-yl)methoxy)-3-fluoro-1,5-naphthyridin-4-yl)ethyl)-2-oxabicyclo[2.2.2]octan-4-ylamino)methyl)-2H-pyrido[3,2-b][1,4]oxazin-3(4H)-one]: 0.25 µg/mL (≈ 0.443 µM). For the molecule `N[C@@H]1CO[C@H]1COc1ccc2ncc(F)c(CCC34CCC(NCc5ccc6c(n5)NC(=O)CO6)(CC3)CO4)c2n1` [Example 185, 6-((1-(2-(6-(((2R,3R)-3-Aminooxetan-2-yl)methoxy)-3-fluoro-1,5-naphthyridin-4-yl)ethyl)-2-oxabicyclo[2.2.2]octan-4-ylamino)methyl)-2H-pyrido[3,2-b][1,4]oxazin-3(4H)-one], the MIC came to 0.125 µg/mL (≈ 0.221 µM). As to `C=CCOc1ccc2ncc(F)c(CCC34CCC(NCc5ccc6c(n5)NC(=O)CO6)(CC3)CO4)c2n1` [Example 186, 6-{[(1-{2-[3-Fluoro-6-(prop-2-en-1-yloxy)-1,5-naphthyridin-4-yl]ethyl}-2-oxabicyclo[2.2.2]oct-4-yl)amino]methyl}-2H-pyrido[3,2-b][1,4]oxazin-3(4H)-one], the MIC amounted to 0.063 µg/mL (≈ 0.121 µM). With `COc1ccc2ncc(F)c(CCC34CCC(NC/C=C/c5cc(F)ccc5F)(CC3)CO4)c2n1` [Example 188, (E)-N-(3-(2,5-Difluorophenyl)allyl)-1-(2-(3-fluoro-6-methoxy-1,5-naphthyridin-4-yl)ethyl)-2-oxabicyclo[2.2.2]octan-4-amine], the MIC amounted to 0.016 µg/mL (≈ 0.0331 µM). With `COc1cc(F)c2ncc(F)c(CCC34CCC(NCc5ccc6c(n5)NC(=O)CO6)(CC3)CO4)c2c1.Cl` [Example 189, 6-((1-(2-(3,8-Difluoro-6-methoxyquinolin-4-yl)ethyl)-2-oxabicyclo[2.2.2]octan-4-ylamino)methyl)-2H-pyrido[3,2-b][1,4]oxazin-3(4H)-one Hydrochloride], the MIC was determined as 0.016 µg/mL. Take `COc1ccc2ncc(F)c(CC(C)(O)C34CCC(NCc5ccc6c(n5)NC(=O)CO6)(CC3)CO4)c2n1.Cl` (stereo not shown) [Example 190, 6-((1-(1-(3-Fluoro-6-methoxy-1,5-naphthyridin-4-yl)-2-hydroxypropan-2-yl)-2-oxabicyclo[2.2.2]octan-4-ylamino)methyl)-2H-pyrido[3,2-b][1,4]oxazin-3(4H)-one Hydrochloride]: the MIC stood at 0.063 µg/mL. Regarding `COc1cc(C)c2ncc(F)c(CCC34CCC(NCc5ccc6c(n5)NC(=O)CO6)(CC3)CO4)c2n1.Cl` [Example 191, 6-((1-(2-(3-Fluoro-6-methoxy-8-methyl-1,5-naphthyridin-4-yl)ethyl)-2-oxabicyclo[2.2.2]octan-4-ylamino)methyl)-2H-pyrido[3,2-b][1,4]oxazin-3(4H)-one Hydrochloride], the MIC was found to be 0.016 µg/mL. In the case of `CNC(=O)COc1ccc2ncc(F)c(CCC34CCC(NC/C=C/c5cc(F)ccc5F)(CC3)CO4)c2n1` [Example 192, (E)-2-(8-(2-(4-(3-(2,5-Difluorophenyl)allylamino)-2-oxabicyclo[2.2.2]octan-1-yl)ethyl)-7-fluoro-1,5-naphthyridin-2-yloxy)-N-methylacetamide], the MIC turned out to be 0.031 µg/mL (≈ 0.0573 µM). For `COc1ccc2ncc(F)c(CCC34CCC(NC/C=C/c5ccccn5)(CC3)CO4)c2n1` [Example 193, (E)-1-(2-(3-Fluoro-6-methoxy-1,5-naphthyridin-4-yl)ethyl)-N-(3-(pyridin-2-yl)allyl)-2-oxabicyclo[2.2.2]octan-4-amine], the MIC is 0.031 µg/mL (≈ 0.0691 µM). With `COc1ccc2ncc(F)c(C(CO)CC34CCC(NCc5ccc6c(n5)NC(=O)CO6)(CC3)CO4)c2n1.Cl` (stereo not shown) [Example 194, 1-(2-(3-Fluoro-6-methoxy-1,5-naphthyridin-4-yl)-3-hydroxypropyl)-N-((3-oxo-3,4-dihydro-2H-pyrido[3,2-b][1,4]oxazin-6-yl)methyl)-2-oxabicyclo[2.2.2]octan-4-aminium chloride], the MIC came out at 1 µg/mL.

As for `COc1ccc2ncc(F)c(C(CC34CCC(NCc5ccc6c(n5)NC(=O)CO6)(CC3)CO4)C(=O)[O-])c2n1.[Na+]` (stereo not shown) [Example 195, Sodium 2-(3-fluoro-6-methoxy-1,5-naphthyridin-4-yl)-3-(4-(((3-oxo-3,4-dihydro-2H-pyrido[3,2-b][1,4]oxazin-6-yl)methyl)amino)-2-oxabicyclo[2.2.2]octan-1-yl)propanoate], the MIC was 1 µg/mL. On to `COc1ccc2ncc(F)c(CCC34CCC(NC(=O)c5nc6c(cc5Cl)SCC(=O)N6)(CC3)CC4)c2n1` [Example 196, 7-Chloro-N-(4-(2-(3-fluoro-6-methoxy-1,5-naphthyridin-4-yl)ethyl)bicyclo[2.2.2]octan-1-yl)-3-oxo-3,4-dihydro-2H-pyrido[3,2-b][1,4]thiazine-6-carboxamide], for which the MIC is 0.25 µg/mL (≈ 0.45 µM). In the case of `COc1ccc2ncc(F)c(CCC34CCC(NCc5nc6c(c(C)c5F)OCC(=O)N6)(CC3)CO4)c2n1.Cl` [Example 197, 1-(2-(3-Fluoro-6-methoxy-1,5-naphthyridin-4-yl)ethyl)-N-((7-fluoro-8-methyl-3-oxo-3,4-dihydro-2H-pyrido[3,2-b][1,4]oxazin-6-yl)methyl)-2-oxabicyclo[2.2.2]octan-4-aminium chloride], the MIC came to 0.5 µg/mL. The same measure for `CCc1c(CNC23CCC(CCc4c(F)cnc5ccc(OC)nc45)(CC2)OC3)nc2c(c1C)OCC(=O)N2.Cl` [Example 198, N-((7-Ethyl-8-methyl-3-oxo-3,4-dihydro-2H-pyrido[3,2-b][1,4]oxazin-6-yl)methyl)-1-(2-(3-fluoro-6-methoxy-1,5-naphthyridin-4-yl)ethyl)-2-oxabicyclo[2.2.2]octan-4-aminium chloride]: 2 µg/mL. Turning to `C=Cc1c(CNC23CCC(CCc4c(F)cnc5ccc(OC)nc45)(CC2)OC3)nc2c(c1C)OCC(=O)N2.Cl` [Example 199, 1-(2-(3-Fluoro-6-methoxy-1,5-naphthyridin-4-yl)ethyl)-N-((8-methyl-3-oxo-7-vinyl-3,4-dihydro-2H-pyrido[3,2-b][1,4]oxazin-6-yl)methyl)-2-oxabicyclo[2.2.2]octan-4-aminium chloride], the MIC stood at 0.25 µg/mL.
